Test: recombinant UMI read abundance after kanamycin selection (control-corrected) (log10(CPM+1)); higher = more efficient recombination; extreme values may be limits of the assay; sequences stand for … in AGTGCAGAGAAAATCGGCCAGTTTTCTCTGCCTGCAGTCCGCATGCCGTGGGACCCCTTGGGTTCTAACCTGTTGCCTAGATTTATGCAGCGGACTGCCTTTCTCCCAAAGTGATAAACCGG…AGGTTGGTTTCACT; site = the 11-nt donor
In short: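 Counts of recombinant UMIs were reported as log10(CPM+1). Before that, they were converted to CPM, averaged over replicates and scaled using control-derived factors. They came from PCR across the donor–target junction after Escherichia coli carrying the pair library and target plasmid was plated on IPTG (0.07 mM) plus kanamycin, or unselected, in two replicates each.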
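Further: IS621 bridge recombinase in Escherichia coli cells against a fixed T5 target plasmid.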

Question: With “GGTACATCATGGACCGGTTTTCCCGGTAATCCGTATTTGTT (site GGTACGTCTAA)” as the sequence, how does the “recombinant UMI read abundance (log10)” value read?
Answer: 0.0133

Question: With “GGTACATCATGGACCGGTTTTCCCGGTAATCCGTATTTGTT (site GGTACTTCTAA)” as the sequence, how does the “recombinant UMI read abundance (log10)” value read?
Answer: 0.00584

Question: For “GGTACGTCATGGACCGGTTTTCCCGGTAATCCGTATTTGGA (site GGTACGTCTTC)”, which “recombinant UMI read abundance (log10)” value is on record?
Answer: 0.695

Question: For “GGTACTCCATGGACCGGTTTTCCCGGTAATCCGTATTTGTA (site GGTACTCCTTA)”, which “recombinant UMI read abundance (log10)” value is on record?
Answer: 0.301

Question: With “GGTACTGCATGGACCGGTTTTCCCGGTAATCCGTATTTGGA (site GGTACTGCTTC)” as the sequence, how does the “recombinant UMI read abundance (log10)” value read?
Answer: 0.135

Question: Which “recombinant UMI read abundance (log10)” value does the source give for “GGTACTTCATGGACCGGTTTTCCCGGTAATCCGTATTTGTT (site GGTACATCTAA)” here?
Answer: 0.0111

Question: With “GGTACTTCATGGACCGGTTTTCCCGGTAATCCGTATTTGTT (site GGTACCTCTAA)” as the sequence, how does the “recombinant UMI read abundance (log10)” value read?
Answer: 0.0128

Question: With “GGTACTTCATGGACCGGTTTTCCCGGTAATCCGTATTTGTT (site GGTACGTCTAA)” as the sequence, how does the “recombinant UMI read abundance (log10)” value read?
Answer: 0.011

Question: For “GGTACTTCATGGACCGGTTTTCCCGGTAATCCGTATTTGTT (site GGTACTTCTAA)”, which “recombinant UMI read abundance (log10)” value is on record?
Answer: 0.456

Question: Which “recombinant UMI read abundance (log10)” value does the source give for “GGTAGGTCATGGACCGGTTTTCCCGGTAATCCGTATTTGTT (site GGTAAGTCTAA)” here?
Answer: 0.00393

Question: Which “recombinant UMI read abundance (log10)” value does the source give for “GGTAGGTCATGGACCGGTTTTCCCGGTAATCCGTATTTGTT (site GGTACGTCTAA)” here?
Answer: 0.0163

Question: Which “recombinant UMI read abundance (log10)” value does the source give for “GGTAGGTCATGGACCGGTTTTCCCGGTAATCCGTATTTGTT (site GGTAGGTCTAA)” here?
Answer: 0.00338

Question: Which “recombinant UMI read abundance (log10)” value does the source give for “GGTAGGTCATGGACCGGTTTTCCCGGTAATCCGTATTTGTT (site GGTATGTCTAA)” here?
Answer: 0.0159

Question: Which “recombinant UMI read abundance (log10)” value does the source give for “GGTAGTGCATGGACCGGTTTTCCCGGTAATCCGTATTTGCC (site GGTAGTGCTGG)” here?
Answer: 1.61

Question: Which “recombinant UMI read abundance (log10)” value does the source give for “GGTATGGCATGGACCGGTTTTCCCGGTAATCCGTATTTGCA (site GGTATGGCTTG)” here?
Answer: 1.9

Question: With “GGTCATCCATGGACCGGTTTTCCCGGTAATCCGTATTTGAA (site GGTCATCCTTT)” as the sequence, how does the “recombinant UMI read abundance (log10)” value read?
Answer: 0.0104

Question: With “GGTCATTCATGGACCGGTTTTCCCGGTAATCCGTATTTGTG (site GGTCATTCTCA)” as the sequence, how does the “recombinant UMI read abundance (log10)” value read?
Answer: 1.05

Question: With “GGTCCAACATGGACCGGTTTTCCCGGTAATCCGTATTTGAA (site GGTCCAACTTA)” as the sequence, how does the “recombinant UMI read abundance (log10)” value read?
Answer: 0.0074

Question: Which “recombinant UMI read abundance (log10)” value does the source give for “GGTCCAACATGGACCGGTTTTCCCGGTAATCCGTATTTGAA (site GGTCCAACTTC)” here?
Answer: 0.00549

Question: For “GGTCCAACATGGACCGGTTTTCCCGGTAATCCGTATTTGAA (site GGTCCAACTTG)”, which “recombinant UMI read abundance (log10)” value is on record?
Answer: 0

Question: For “GGTCCAACATGGACCGGTTTTCCCGGTAATCCGTATTTGAA (site GGTCCAACTTT)”, which “recombinant UMI read abundance (log10)” value is on record?
Answer: 0.0109

Question: For “GGTCCAACATGGACCGGTTTTCCCGGTAATCCGTATTTGTT (site GGTCCAACTAA)”, which “recombinant UMI read abundance (log10)” value is on record?
Answer: 0.0107

Question: With “GGTCCAACATGGACCGGTTTTCCCGGTAATCCGTATTTGTT (site GGTCCAACTCA)” as the sequence, how does the “recombinant UMI read abundance (log10)” value read?
Answer: 0.0106

Question: With “GGTCCAACATGGACCGGTTTTCCCGGTAATCCGTATTTGTT (site GGTCCAACTGA)” as the sequence, how does the “recombinant UMI read abundance (log10)” value read?
Answer: 0.00734

Question: With “GGTCCAACATGGACCGGTTTTCCCGGTAATCCGTATTTGTT (site GGTCCAACTTA)” as the sequence, how does the “recombinant UMI read abundance (log10)” value read?
Answer: 0.0123

Question: Which “recombinant UMI read abundance (log10)” value does the source give for “GGTCCGACATGGACCGGTTTTCCCGGTAATCCGTATTTGTA (site GGTCCAACTTA)” here?
Answer: 0.0275

Question: For “GGTCCGACATGGACCGGTTTTCCCGGTAATCCGTATTTGTA (site GGTCCCACTTA)”, which “recombinant UMI read abundance (log10)” value is on record?
Answer: 0.00256

Question: Which “recombinant UMI read abundance (log10)” value does the source give for “GGTCCGACATGGACCGGTTTTCCCGGTAATCCGTATTTGTA (site GGTCCGACTTA)” here?
Answer: 0.0268

Question: With “GGTCCGACATGGACCGGTTTTCCCGGTAATCCGTATTTGTA (site GGTCCTACTTA)” as the sequence, how does the “recombinant UMI read abundance (log10)” value read?
Answer: 0.0182

Question: With “GGTCCGGCATGGACCGGTTTTCCCGGTAATCCGTATTTGTC (site GGTCCGGCTGA)” as the sequence, how does the “recombinant UMI read abundance (log10)” value read?
Answer: 0

Question: With “GGTCCTACATGGACCGGTTTTCCCGGTAATCCGTATTTGTA (site GGTCCAACTTA)” as the sequence, how does the “recombinant UMI read abundance (log10)” value read?
Answer: 0.00723

Question: For “GGTCCTACATGGACCGGTTTTCCCGGTAATCCGTATTTGTA (site GGTCCCACTTA)”, which “recombinant UMI read abundance (log10)” value is on record?
Answer: 0.0198

Question: For “GGTCCTACATGGACCGGTTTTCCCGGTAATCCGTATTTGTA (site GGTCCGACTTA)”, which “recombinant UMI read abundance (log10)” value is on record?
Answer: 0.0128

Question: With “GGTCCTACATGGACCGGTTTTCCCGGTAATCCGTATTTGTA (site GGTCCTACTTA)” as the sequence, how does the “recombinant UMI read abundance (log10)” value read?
Answer: 0.0187

Question: With “GGTCCTCCATGGACCGGTTTTCCCGGTAATCCGTATTTGTT (site GGTCCTCCTAA)” as the sequence, how does the “recombinant UMI read abundance (log10)” value read?
Answer: 0.025

Question: For “GGTCGAGCATGGACCGGTTTTCCCGGTAATCCGTATTTGCA (site GATCGAGCTTG)”, which “recombinant UMI read abundance (log10)” value is on record?
Answer: 0.273

Question: Which “recombinant UMI read abundance (log10)” value does the source give for “GGTCGAGCATGGACCGGTTTTCCCGGTAATCCGTATTTGCA (site GCTCGAGCTTG)” here?
Answer: 0.0115

Question: Which “recombinant UMI read abundance (log10)” value does the source give for “GGTCGAGCATGGACCGGTTTTCCCGGTAATCCGTATTTGCA (site GGTCGAGCTTG)” here?
Answer: 1.83

Question: With “GGTCGAGCATGGACCGGTTTTCCCGGTAATCCGTATTTGCA (site GTTCGAGCTTG)” as the sequence, how does the “recombinant UMI read abundance (log10)” value read?
Answer: 0.824

Question: With “GGTCGCTCATGGACCGGTTTTCCCGGTAATCCGTATTTGCT (site GGTCGCTCTAG)” as the sequence, how does the “recombinant UMI read abundance (log10)” value read?
Answer: 0.782

Question: With “GGTCGGCCATGGACCGGTTTTCCCGGTAATCCGTATTTGAA (site GGTCGGCCTTT)” as the sequence, how does the “recombinant UMI read abundance (log10)” value read?
Answer: 0

Question: Which “recombinant UMI read abundance (log10)” value does the source give for “GGTGAGCCATGGACCGGTTTTCCCGGTAATCCGTATTTGGG (site GGTGAGCCTCC)” here?
Answer: 0.0257

Question: For “GGTGCATCATGGACCGGTTTTCCCGGTAATCCGTATTTGCT (site GGTGCATCTAG)”, which “recombinant UMI read abundance (log10)” value is on record?
Answer: 1.92

Question: For “GGTGCCCCATGGACCGGTTTTCCCGGTAATCCGTATTTGAC (site GGTGCCCCTGT)”, which “recombinant UMI read abundance (log10)” value is on record?
Answer: 0

Question: For “GGTGGAACATGGACCGGTTTTCCCGGTAATCCGTATTTGTT (site AGTGGAACTAA)”, which “recombinant UMI read abundance (log10)” value is on record?
Answer: 0.371

Question: For “GGTGGAACATGGACCGGTTTTCCCGGTAATCCGTATTTGTT (site CGTGGAACTAA)”, which “recombinant UMI read abundance (log10)” value is on record?
Answer: 0.00196

Question: For “GGTGGAACATGGACCGGTTTTCCCGGTAATCCGTATTTGTT (site GGTGGAACTAA)”, which “recombinant UMI read abundance (log10)” value is on record?
Answer: 0.746

Question: Which “recombinant UMI read abundance (log10)” value does the source give for “GGTGGAACATGGACCGGTTTTCCCGGTAATCCGTATTTGTT (site TGTGGAACTAA)” here?
Answer: 0.00382

Question: Which “recombinant UMI read abundance (log10)” value does the source give for “GGTGTGCCATGGACCGGTTTTCCCGGTAATCCGTATTTGAC (site GGTGTGCCTGT)” here?
Answer: 0

Question: For “GGTTACTCATGGACCGGTTTTCCCGGTAATCCGTATTTGGA (site GGTTACTCTTC)”, which “recombinant UMI read abundance (log10)” value is on record?
Answer: 1.18

Question: With “GGTTAGACATGGACCGGTTTTCCCGGTAATCCGTATTTGAG (site AGTTAGACTCT)” as the sequence, how does the “recombinant UMI read abundance (log10)” value read?
Answer: 0.498

Question: For “GGTTAGACATGGACCGGTTTTCCCGGTAATCCGTATTTGAG (site CGTTAGACTCT)”, which “recombinant UMI read abundance (log10)” value is on record?
Answer: 0.202

Question: Which “recombinant UMI read abundance (log10)” value does the source give for “GGTTAGACATGGACCGGTTTTCCCGGTAATCCGTATTTGAG (site GGTTAGACTCT)” here?
Answer: 1.12

Question: Which “recombinant UMI read abundance (log10)” value does the source give for “GGTTAGACATGGACCGGTTTTCCCGGTAATCCGTATTTGAG (site TGTTAGACTCT)” here?
Answer: 0.194

Question: With “GGTTGGACATGGACCGGTTTTCCCGGTAATCCGTATTTGAC (site GATTGGACTGT)” as the sequence, how does the “recombinant UMI read abundance (log10)” value read?
Answer: 0

Question: With “GGTTGGACATGGACCGGTTTTCCCGGTAATCCGTATTTGAC (site GCTTGGACTGT)” as the sequence, how does the “recombinant UMI read abundance (log10)” value read?
Answer: 0

Question: With “GGTTGGACATGGACCGGTTTTCCCGGTAATCCGTATTTGAC (site GGTTGGACTGT)” as the sequence, how does the “recombinant UMI read abundance (log10)” value read?
Answer: 1.49

From the supplement of paper PMC11208160
